From patent publication US12336981B2, “Compounds and compositions for the inhibition of NAMPT” (Valo Health, Inc., priority 2010, dated 2025)
Counter-ions that a name gives are not always drawn. Like-named read-outs stand apart in the source and are kept apart here.

Columns and labels:
U251 cells = test: In-vitro cell proliferation assay (SRB), U251 cells; format: cell-based; settings: Homo sapiens, U-251, 72 hours
Procedure: After overnight incubation at 37° C. and 5% CO2, the compound titrations were performed in a separate dilution plate by serially diluting the compounds in DMSO to make a 1000× stock. The compounds were then further diluted to 10× final concentration in culture media, whereupon 20 μL of each dilution was added to the plated cells with controls (e.g. DMSO and blank) to make a final volume of 5 200 μL. The final DMSO concentration in each well was 0.1%. The plates were then incubated for 72 hours at 37° C. in a 5% CO2 incubator. The number of viable cells was then assessed using sulforhodamine B (SRB) assay. Cells were fixed at 4° C. for 1 hour with the addition of 50 μL 30% trichloroacetic acid (TCA) to make a final concentration of 6% 10 TCA. The plates were washed four times with H2O and allowed to dry for at least 1 hour, whereupon 100 μL of a 4% SRB in 1% acetic acid solution was added to each well and incubated at room temperature for at least 30 minutes. The plates were then washed three times with 1% acetic acid, dried, and treated with 100 μL of 10 mM Tris-Base solution. The plates were then read in a microplate reader at an absorbance of 570 nm. 15 Background was generated on a separate plate with media only. Method for Determining % Inhibition First, the signals from the background plate are averaged, then the background was subtracted from the test plates.

NAMPT = molecular target: T1, NAMPT (Homo sapiens, UniProt P43490); test: Biochemical inhibition assay: NAMPT enzymatic reaction, NMN quantified by mass spectrometry; settings: read-out: Biochem IC50
T1 construct: His tag; host or cells: E. coli
Method in brief: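 Inhibition of E. coli-expressed His-tagged human NAMPT, measured as NMN formation by mass spectrometry after a 30 min room-temperature reaction containing 1 μM NAM, 100 μM PRPP and 2.5 mM ATP.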

A2780 cells = test: In-vitro cell proliferation assay (SRB), A2780 cells; format: cell-based; settings: Homo sapiens, A2780, 72 h, A2780 cells, 72 hours, read-out: A2780 IC50
Method in brief: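 Proliferation is assessed by sulforhodamine B staining following a 72-hour incubation with compound dilutions containing 0.1% DMSO.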

T1 sequence (P43490 whole entry): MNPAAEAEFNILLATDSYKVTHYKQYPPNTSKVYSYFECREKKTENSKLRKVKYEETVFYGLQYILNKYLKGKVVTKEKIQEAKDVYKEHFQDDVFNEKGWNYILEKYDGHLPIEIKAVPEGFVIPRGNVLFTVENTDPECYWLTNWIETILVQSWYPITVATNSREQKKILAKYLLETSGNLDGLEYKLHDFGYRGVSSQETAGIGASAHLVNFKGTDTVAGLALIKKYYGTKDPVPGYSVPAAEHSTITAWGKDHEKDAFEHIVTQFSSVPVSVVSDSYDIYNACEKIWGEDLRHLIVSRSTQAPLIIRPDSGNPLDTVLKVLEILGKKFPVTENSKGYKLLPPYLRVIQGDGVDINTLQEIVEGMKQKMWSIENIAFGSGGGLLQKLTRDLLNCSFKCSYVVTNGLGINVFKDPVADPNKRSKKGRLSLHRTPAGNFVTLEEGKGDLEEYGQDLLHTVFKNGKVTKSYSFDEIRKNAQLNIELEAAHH

Compound | IC50 (U251 cells) [nM] | IC50 (NAMPT; NAMPT enzymatic reaction) [nM] | IC50 (A2780 cells; SRB assay) [nM] | IC50 (NAMPT; NAMPT enzymatic assay) [nM] | IC50 (A2780 cells; SRB) [nM]
O=C(NCc1ccc([S+]([O-])c2cc(F)cc(F)c2)cc1)c1ccc2nccn2c1 (stereo not shown) [N-({4-[(3,5-difluorobenzene)sulfinyl]phenyl}methyl)imidazo[1,2-a]pyridine-6-carboxamide] | 6.6 | – | – | – | –
NC1CCN(S(=O)(=O)c2ccc(CNC(=O)c3cc4ccncc4o3)cc2)C1 (stereo not shown) [N-{[4-(3-aminopyrrolidine-1-sulfonyl)phenyl]methyl}furo[2,3-c]pyridine-2-carboxamide hydrochloride] | 1850 | – | – | – | –
NC1CCN(S(=O)(=O)c2ccc(CNC(=O)c3cc4ccncc4s3)cc2)C1 (stereo not shown) [N-{[4-(3-aminopyrrolidine-1-sulfonyl)phenyl]methyl}thieno[2,3-c]pyridine-2-carboxamide hydrochloride] | 310 | – | – | – | –
O=C(NCc1ccc(S(=O)(=O)N2CCCCC2)cc1)c1cn2[nH]ccc2n1 [N-{[4-(piperidine-1-sulfonyl)phenyl]methyl}-1H-imidazo[1,2-b]pyrazole-5-carboxamide] | – | 0.8 | 11 | – | –
O=C(NCc1ccc(S(=O)(=O)N2CCCCC2)cc1)c1ccc2[nH]ncc2c1 [N-{[4-(piperidine-1-sulfonyl)phenyl]methyl}-1H-indazole-5-carboxamide] | – | 18 | 16 | – | –
O=C(NCc1ccc(S(=O)(=O)N2CCCCC2)cc1)c1cnc2[nH]ncc2c1 [N-{[4-(piperidine-1-sulfonyl)phenyl]methyl}-1H-pyrazolo[3,4-b]pyridine-5-carboxamide] | – | 17 | 33 | – | –
O=C(NCc1ccc(S(=O)(=O)N2CCCCC2)cc1)c1cc2ccncc2[nH]1 [N-{[4-(piperidine-1-sulfonyl)phenyl]methyl}-1H-pyrrolo[2,3-c]pyridine-2-carboxamide] | – | 4 | 54 | – | –
O=C(NCc1ccc(S(=O)(=O)N2CCCCC2)cc1)c1ccn2nnnc2c1 [N-{[4-(piperidine-1-sulfonyl)phenyl]methyl}-[1,2,3,4]tetrazolo[1,5-a]pyridine-7-carboxamide] | – | 3 | 9 | – | –
O=C(NCc1ccc(S(=O)(=O)N2CCCCC2)cc1)c1cc2cnccc2o1 [N-{[4-(piperidine-1-sulfonyl)phenyl]methyl}furo[3,2-c]pyridine-2-carboxamide] | – | 17 | 286 | – | –
O=C(NCc1ccc(S(=O)(=O)N2CCCCC2)cc1)c1ccc2nccn2c1 [N-{[4-(piperidine-1-sulfonyl)phenyl]methyl}imidazo[1,2-a]pyridine-6-carboxamide] | – | 18 | 1160 | – | –
O=C(NCc1ccc(S(=O)(=O)N2CCCCC2)cc1)c1ccn2ccnc2c1 [N-{[4-(piperidine-1-sulfonyl)phenyl]methyl}imidazo[1,2-a]pyridine-7-carboxamide] | – | > 100 | > 500 | – | –
O=C(NCc1ccc(S(=O)(=O)N2CCCCC2)cc1)c1cccnc1 [N-{[4-(piperidine-1-sulfonyl)phenyl]methyl}pyridine-3-carboxamide] | – | 39 | 640 | – | –
O=C(NCc1ccc(S(=O)(=O)N2CCCCC2)cc1)c1cc2cccnc2s1 [N-{[4-(piperidine-1-sulfonyl)phenyl]methyl}thieno[2,3-b]pyridine-2-carboxamide] | – | 6150 | 14000 | – | –
O=C(NCc1ccc(S(=O)(=O)N2CCCCC2)cc1)c1cc2cnccc2s1 [N-{[4-(piperidine-1-sulfonyl)phenyl]methyl}thieno[3,2-c]pyridine-2-carboxamide] | – | 886 | 10000 | – | –
O=C(NCc1ccc(S(=O)(=O)c2ccccn2)cc1)c1cc2ccncc2o1 [N-{[4-(pyridine-2-sulfonyl)phenyl]methyl}furo[2,3-c]pyridine-2-carboxamide] | – | – | – | 55.1 | 87
O=C(NCc1ccc(S(=O)(=O)c2cccnc2)cc1)c1cc2ccncc2o1 [N-{[4-(pyridine-3-sulfonyl)phenyl]methyl}furo[2,3-c]pyridine-2-carboxamide] | – | – | – | 9 | 66.4
O=C(NCc1ccc(S(=O)(=O)c2cccnc2)cc1)c1cnc2nccn2c1 [N-{[4-(pyridine-3-sulfonyl)phenyl]methyl}imidazo[1,2-a]pyrimidine-6-carboxamide] | – | – | – | 5.9 | 100 to 1000

Compound | IC50 (U251 cells) [nM] | IC50 (NAMPT; NAMPT enzymatic reaction) [nM] | IC50 (A2780 cells; SRB assay) [nM] | IC50 (NAMPT; NAMPT enzymatic assay) [nM] | IC50 (A2780 cells; SRB) [nM]
O=C(NCc1ccc(S(=O)(=O)c2cnc3ccccc3c2)cc1)c1cnc2[nH]ncc2c1 [N-{[4-(quinoline-3-sulfonyl)phenyl]methyl}-1H-pyrazolo[3,4-b]pyridine-5-carboxamide] | – | – | – | 5.2 | 4.4
O=C(NCc1ccc(S(=O)(=O)c2cnc3ccccc3c2)cc1)c1cc2cnccc2[nH]1 [N-{[4-(quinoline-3-sulfonyl)phenyl]methyl}-1H-pyrrolo[3,2-c]pyridine-2-carboxamide] | – | – | – | 16.3 | 2.9
O=C(NCc1ccc(S(=O)(=O)c2cnc3ccccc3c2)cc1)c1ccc2nccn2c1 [N-{[4-(quinoline-3-sulfonyl)phenyl]methyl}imidazo[1,2-a]pyridine-6-carboxamide] | – | – | – | 14 | 1
O=C(NCc1ccc(S(=O)(=O)c2cnc3ccccc3c2)cc1)c1cnc2nccn2c1 [N-{[4-(quinoline-3-sulfonyl)phenyl]methyl}imidazo[1,2-a]pyrimidine-6-carboxamide] | – | – | – | 2.5 | 3.6
O=C(NCc1ccc(S(=O)(=O)c2cnc3ccccc3c2)cc1)c1cc2ccncc2s1 [N-{[4-(quinoline-3-sulfonyl)phenyl]methyl}thieno[2,3-c]pyridine-2-carboxamide] | – | 3 | 0.8 | 4.4 | 0.9
O=C(NCc1ccc(S(=O)(=O)c2ccc3ncccc3c2)cc1)c1cnc2[nH]ncc2c1 [N-{[4-(quinoline-6-sulfonyl)phenyl]methyl}-1H-pyrazolo[3,4-b]pyridine-5-carboxamide] | – | – | – | 10.1 | 4.1
O=C(NCc1ccc(S(=O)(=O)c2ccc3ncccc3c2)cc1)c1cc2ccncc2o1 [N-{[4-(quinoline-6-sulfonyl)phenyl]methyl}furo[2,3-c]pyridine-2-carboxamide] | – | – | – | 7.3 | 5
O=C(NCc1ccc(S(=O)(=O)c2ccc3ncccc3c2)cc1)c1ccc2nccn2c1 [N-{[4-(quinoline-6-sulfonyl)phenyl]methyl}imidazo[1,2-a]pyridine-6-carboxamide] | – | – | – | 5.16 | 0.83
O=C(NCc1ccc(S(=O)(=O)c2ccc3ncccc3c2)cc1)c1cnc2nccn2c1 [N-{[4-(quinoline-6-sulfonyl)phenyl]methyl}imidazo[1,2-a]pyrimidine-6-carboxamide] | – | – | – | 3.3 | 5.6
O=C(NCc1ccc(S(=O)(=O)c2ccc3ncccc3c2)cc1)c1cc2ccncc2s1 [N-{[4-(quinoline-6-sulfonyl)phenyl]methyl}thieno[2,3-c]pyridine-2-carboxamide] | – | 3 | 0.9 | – | –
O=C(NCc1ccc(S(=O)(=O)c2cccc3cccnc23)cc1)c1cnc2[nH]ncc2c1 [N-{[4-(quinoline-8-sulfonyl)phenyl]methyl}-1H-pyrazolo[3,4-b]pyridine-5-carboxamide] | – | – | – | 45.5 | 23.6
O=C(NCc1ccc(S(=O)(=O)c2cccc3cccnc23)cc1)c1cc2ccncc2o1 [N-{[4-(quinoline-8-sulfonyl)phenyl]methyl}furo[2,3-c]pyridine-2-carboxamide] | – | – | – | 7.6 | 6
O=C(NCc1ccc(S(=O)(=O)c2cccc3cccnc23)cc1)c1ccc2nccn2c1 [N-{[4-(quinoline-8-sulfonyl)phenyl]methyl}imidazo[1,2-a]pyridine-6-carboxamide] | – | – | – | 9.8 | 5.5
O=C(NCc1ccc(S(=O)(=O)c2cccc3cccnc23)cc1)c1cnc2nccn2c1 [N-{[4-(quinoline-8-sulfonyl)phenyl]methyl}imidazo[1,2-a]pyrimidine-6-carboxamide] | – | – | – | 3 | 27.7
O=C(NCc1ccc(S(=O)(=O)c2cccc3cccnc23)cc1)c1cc2ccncc2s1 [N-{[4-(quinoline-8-sulfonyl)phenyl]methyl}thieno[2,3-c]pyridine-2-carboxamide] | – | 6 | 2.5 | – | –
CC(C)CNC(=O)c1cccc(S(=O)(=O)c2ccc(CNC(=O)c3cc4ccncc4s3)cc2)c1 [N-{[4-({3-[(2-methylpropyl)carbamoyl]benzene}sulfonyl)phenyl]methyl}thieno[2,3-c]pyridine-2-carboxamide] | – | – | – | 5.2 | 14.5
CC(C)NC(=O)c1cc(S(=O)(=O)c2ccc(CNC(=O)c3cnc4[nH]ncc4c3)cc2)ccc1F [N-{[4-({4-fluoro-3-[(propan-2-yl)carbamoyl]benzene}sulfonyl)phenyl]methyl}-1H-pyrazolo[3,4-b]pyridine-5-carboxamide] | – | – | – | 85.2 | 63.1
